Measured values from patent publication US20030176477A1 (priority 2000, published 2003).
Like-named read-outs stand apart in the source and are kept apart here.

What was measured:
Pyricularia oryzae [1] = assay: whole plant or invertebrate; format: in vivo; settings: foliar, 168 h, read-out: control value
Pyricularia oryzae [2] = assay: whole plant or invertebrate; format: in vivo; settings: 168 h, read-out: control value

| Compound | pest or weed control at 500 ppm (Pyricularia oryzae [1]) [%] | pest or weed control at 500 ppm (Pyricularia oryzae [2]) [%] | melting point [°C] |
| --- | --- | --- | --- |
| O=CN(CNC(=O)c1snc(Cl)c1Cl)Cc1ccccc1 | > 80 | > 80 | 102 to 103 |
| N#CC(=CNNC(=O)c1snc(Cl)c1Cl)c1ccccc1 | – | – | 212 to 214 |
| CN(NC=C(C#N)c1ccccc1)C(=O)c1snc(Cl)c1Cl | – | – | 130 to 139 |
| O=C(NCC(O)CO)c1snc(Cl)c1Cl (stereo not shown) | – | – | 68 to 72 |
| CC1(C)OCC(CNC(=O)c2snc(Cl)c2Cl)O1 (stereo not shown) | – | – | 132 to 133 |
| N#C/C(=N\c1ccc(C(F)(F)F)cc1)NC(=O)c1snc(Cl)c1Cl | – | – | 151 to 153 |
| O=C(S)c1snc(Cl)c1Cl | – | – | 79 to 80 |
| Cc1c(-c2ccccc2)[nH]n(C(=O)c2snc(Cl)c2Cl)c1=O | – | – | 190 to 191 |
| COCNC(=O)c1snc(Cl)c1Cl | – | – | 79 to 87 |
| O=C(NC(Sc1nnc(-c2ccccc2)s1)C(F)(F)F)c1snc(Cl)c1Cl (stereo not shown) | – | – | 124 to 127 |
| O=C(NCO)c1snc(Cl)c1Cl [compound 45, N-hydroxymethyl-3,4-dichloro-5-isothiazolecarboxamide] | > 80 | – | – |
| O=C(NC(O)C(F)(F)F)c1snc(Cl)c1Cl (stereo not shown) [compound 48, N-(2,2,2-trifluoro-1-hydroxyethyl)-3,4-dichloro-5-isothiazolecarboxamide] | > 80 | – | 90 to 93 |
| CCOC(NC(=O)c1snc(Cl)c1Cl)C(F)(F)F (stereo not shown) [compound 49, N-(2,2,2-trifluoro-1-ethoxyethyl)-3,4-dichloro-5-isothiazolecarboxamide] | – | > 80 | 99 to 101 |
| O=C(Nc1ccc(C(F)(F)F)cc1)OCNC(=O)c1snc(Cl)c1Cl [compound 58, N-[N-(4-trifluoromethylphenyl)-carbamoyloxymethyl]-3,4-dichloro-5-isothiazolecarboxamide] | – | > 80 | 117 to 119 |
| O=C(NCSc1ccc(Cl)cc1)c1snc(Cl)c1Cl [compound 65, N-(4-chlorophenylthiomethyl)-3,4-dichloro-5-isothiazolecarboxamide] | > 80 | – | 106 to 107 |
| O=C(NCS(=O)(=O)c1ccccc1)c1snc(Cl)c1Cl [compound 71, N-phenylsulfonylmethyl-3,4-dichloro-5-isothiazolecarboxamide] | > 80 | – | 175 to 176 |
| Cn1nnnc1SCNC(=O)c1snc(Cl)c1Cl [compound 76, N-(1-methyl-5-tetrazolethiomethyl)-3,4-dichloro-5-isothiazolecarboxamide] | > 80 | > 80 | 176 to 177 |
| Cc1cc(C)n(COC(=O)c2snc(Cl)c2Cl)n1 [compound 98, 3,5-dimethylpyrazol-1-ylmethyl 3,4-dichloro-5-isothiazolecarboxylate] | > 80 | – | 80 to 81 |
| CCCC(NC(C)=O)NC(=O)c1snc(Cl)c1Cl (stereo not shown) [compound 112, N-[1-(acetamido)butyl]-3,4-dichloro-5-isothiazolecarboxamide] | > 80 | > 80 | 162 to 165 |
| Cn1nnnc1SCN(CNC(=O)c1snc(Cl)c1Cl)C(=O)c1snc(Cl)c1Cl [compound 154, N-[(3,4-dichloro-5-isothiazolecarboxamido)-methyl]-N-(1-methyl-5-tetrazolethiomethyl)-3,4-dichloro-5-isothiazolecarboxamide] | – | > 80 | 185 to 188 |
| O=C(c1snc(Cl)c1Cl)n1[nH]c(-c2ccc(Cl)cc2)cc1=O [compound 288] | – | > 80 | > 250 |
| CN(C)/C=N/C(=O)c1snc(Cl)c1Cl [compound 290, N-dimethylaminomethylidene-3,4-dichloro-5-iso thiazolecarboxamide] | – | > 80 | 196 to 197 |
